How the values were obtained:
[1] = tested on: HCT-116; assay: Antiproliferative activity against human HCT116 cells incubated for 48 hrs by SRB assay; type: functional; conditions: HCT-116, 48 h
[2] = tested on: MDA-MB-231; assay: Antiproliferative activity against human MDA-MB-231 cells incubated for 48 hrs by SRB assay; type: functional; conditions: MDA-MB-231, 48 h

Row | GI50 [1] [µM] | GI50 [2] [µM] | SMILES
1 | > 10 | > 10 | Nc1ccn(C(=O)c2ccc(CNC3=C(Cl)C(=O)c4ccccc4C3=O)cc2)n1
2 | > 10 | > 10 | O=C(Nc1cccc2ncccc12)c1ccc(CNC2=C(Cl)C(=O)c3ccccc3C2=O)cc1
3 | > 10 | > 10 | O=C(Nc1nccs1)c1ccc(CNC2=C(Cl)C(=O)c3ccccc3C2=O)cc1
4 | > 10 | > 10 | O=C(Nc1ccc2[nH]ncc2c1)c1ccc(CNC2=C(Cl)C(=O)c3ccccc3C2=O)cc1
5 | > 10 | 8.9 | O=C(Nc1nc2ccccc2[nH]1)c1ccc(CNC2=C(Cl)C(=O)c3ccccc3C2=O)cc1
6 | > 10 | > 10 | O=C(Nc1cnc2ccccc2c1)c1ccc(CNC2=C(Cl)C(=O)c3ccccc3C2=O)cc1
7 | > 10 | > 10 | O=C(Nc1ccc2[nH]cnc2c1)c1ccc(CNC2=C(Cl)C(=O)c3ccccc3C2=O)cc1
8 | > 10 | > 10 | O=C(Nc1ccc(F)cc1)c1ccc(CNC2=C(Cl)C(=O)c3ccccc3C2=O)cc1
